Measurements from US7101878B1 (Agouron Pharmaceuticals, Inc., priority 1998, dated 2006).
Like-named read-outs stand apart in the source and are kept apart here.

Columns and labels:
mouse GnRH receptor = target: T1, mouse GnRH receptor (Mus musculus, UniProt Q01776); assay: Radioligand binding, 125I-GnRH-A, 293 cells expressing mouse GnRH receptors; details: for inhibition at 10 µM: read-out: % Inhib. @ 10 uM mGnRH
T1 construct: expressed in transfected cells; host or cells: 293 cells
T1 sequence (Q01776 1-327): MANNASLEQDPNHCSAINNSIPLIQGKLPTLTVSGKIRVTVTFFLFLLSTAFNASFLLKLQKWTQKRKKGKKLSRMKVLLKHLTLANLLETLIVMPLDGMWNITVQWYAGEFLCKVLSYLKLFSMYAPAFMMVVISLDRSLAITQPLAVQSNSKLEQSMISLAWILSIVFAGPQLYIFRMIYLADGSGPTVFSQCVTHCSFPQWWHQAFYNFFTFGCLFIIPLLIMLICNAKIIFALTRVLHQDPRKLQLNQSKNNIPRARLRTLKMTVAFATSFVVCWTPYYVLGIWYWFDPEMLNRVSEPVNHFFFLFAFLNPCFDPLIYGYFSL
Description: All compounds were diluted in 1% DMSO (final assay concentration) in binding assay buffer. […] Reactions were terminated by rapid filtration onto 96-well Packard GF/C filters soaked in 0.1% polyethyleneimine. Filters were washed three times with PBS buffer, dried and counted on a Packard Topcount by liquid scintillation counting.
Assay conditions were identical for assessing compound activities at other species. […] IC50 values for control peptides and test compounds were calculated utilizing GraphPad Prism™ software.
The reaction mixture was vortexed and incubated for 1 min at room temperature. After one min, the mixture was vortexed and allowed to incubate for an additional minute. 2 ml of 0.5 M acetic acid/1% BSA was added to the reaction tube and the mixture was added to a C18 Sep-Pak cartridge. The cartridge was washed with subsequent washes of 5 ml H2O and 5 ml 0.5M acetic acid and then eluted with 5×1 ml of 60% CH3CN/40% 0.5M acetic acid. The eluate was diluted with 3× volume of HPLC buffer A (0.1% TFA in H2O) and loaded onto a C18 column. […] The radioactive fractions (750 ed/fraction) are collected into clean polypropylene tubes containing 100 μl of 10% BSA. Fractions were assessed for biological activity by radioligand binding.

human GnRH receptor = target: T2, human GnRH receptor (Homo sapiens, UniProt P30968); assay: Radioligand binding, 125I-GnRH-A displacement, membranes of HEK 293 cells with human GnRH receptor; details: for remaining activity at 10 µM / remaining activity at 1 µM: substrate remaining, closer to zero = closer to 100% inhibition; for remaining activity at 10 µM: 10 uM compound, read-out: S%R 10 uM hGnRHR; for remaining activity at 1 µM: 1 uM compound, read-out: S%R 1 uM hGnRHR; for IC50: read-out: hGnRH IC50
T2 construct: expressed in transfected cells; host or cells: HEK 293 (hGnRH-R/293, from Dr. Stuart Sealfon)
T2 sequence (P30968 1-328): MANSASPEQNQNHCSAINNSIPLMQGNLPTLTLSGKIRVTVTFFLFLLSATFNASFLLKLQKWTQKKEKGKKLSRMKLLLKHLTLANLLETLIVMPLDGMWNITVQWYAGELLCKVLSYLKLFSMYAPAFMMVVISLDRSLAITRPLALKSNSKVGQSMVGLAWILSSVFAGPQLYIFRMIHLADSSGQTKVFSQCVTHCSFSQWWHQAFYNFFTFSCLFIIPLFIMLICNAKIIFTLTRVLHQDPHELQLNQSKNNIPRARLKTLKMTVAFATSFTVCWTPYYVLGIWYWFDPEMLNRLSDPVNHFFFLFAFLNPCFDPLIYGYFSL
How it was run: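 Bound tracer was separated by filtration through polyethyleneimine-soaked GF/C filters and counted by liquid scintillation. IC50 from curve fitting; other species were tested under the same conditions.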

[1] = 1 uM, read-out: % Inhib. @ 1 uM hGnRH
[2] = 1 h, repeat of % Inhib. at 1 uM, read-out: Repeats @ 1 uM hGnRH

SMILES | inhibition at 1 µM (human GnRH receptor; [1]) [%] | inhibition at 1 µM (human GnRH receptor; [2]) [%] | other results
Cc1cc2c(cc1Cc1ccc(C(=O)NC(CO)CO)o1)C(C)(C)CCC2(C)C | – | – | inhibition at 10 µM (mouse GnRH receptor): 22%
Cc1cc2c(cc1Cc1ccc(C(=O)N(CCCO)Cc3ccc(Cl)cc3Cl)o1)C(C)(C)CCC2(C)C | – | – | inhibition at 10 µM (mouse GnRH receptor): 94%
Cc1cc2c(cc1Cc1ccc(C(=O)N3CCC(n4c(=O)[nH]c5ccccc54)CC3)o1)C(C)(C)CCC2(C)C [drawing 1246] | – | – | inhibition at 10 µM (mouse GnRH receptor): 80%
Cc1cc2c(cc1Cc1ccc(C(=O)NC3CCC(c4nccc(NCC5CCCO5)n4)C3)o1)C(C)(C)CCC2(C)C (stereo not drawn) [Compound 486] | – | – | remaining activity at 10 µM (mouse GnRH receptor; 1 h, substrate remaining, 10 uM compound, closer to zero = closer to 100% inhibition, read-out: S%R 10 uM mGnRHR): 33%
Cc1cc2c(cc1Cc1ccc(C(=O)N3CCC(NC(=O)C(F)(F)F)C3)o1)C(C)(C)CCC2(C)C (stereo not drawn) [drawing 1578] | – | – | inhibition at 10 µM (mouse GnRH receptor): 60%
Cc1cc2c(cc1Cc1ccc(C(=O)Nc3ccc4c(=O)[nH][nH]c(=O)c4c3)o1)C(C)(C)CCC2(C)C [Compound 377] | – | – | remaining activity at 10 µM (human GnRH receptor; 1 h): 39%
Cc1cc2c(cc1Cc1ccc(C(=O)N3CCN(c4ccc(C(F)(F)F)cc4)CC3)o1)C(C)(C)CCC2(C)C | -12 | 1 | –
Cc1cc2c(cc1Cc1ccc(C(=O)NC(c3ccccc3)C(O)c3ccccc3)o1)C(C)(C)CCC2(C)C (stereo not drawn) [drawing 1072] | – | – | % Inhib. @ 1 uM hGnRH (human GnRH receptor; 1 uM): 56%; Repeats @ 1 uM hGnRH (human GnRH receptor; repeat of % Inhib. at 1 uM): 57
Cc1cc2c(cc1Cc1ccc(C(=O)NCc3cccc(C)c3C)o1)C(C)(C)CCC2(C)C [Compound 441] | – | – | remaining activity at 1 µM (human GnRH receptor; 1 h): 17%
Cc1cc2c(cc1Cc1ccc(C(=O)NCCc3ccc(-c4ccccc4)cc3)o1)C(C)(C)CCC2(C)C | -17 | -31 | –
CCOC(=O)N1CCC(C)(C)c2c(Cc3ccc(C(=O)Nc4c(OC)cc(OC)cc4OC)o3)c(OC)cc(OC)c21 [Compound 200.5] | – | – | IC50 (human GnRH receptor): 1230 nM
Cc1cc2c(cc1Cc1ccc(C(=O)Nc3ccc(CO)cc3)o1)C(C)(C)CCC2(C)C [Compound 339] | – | – | remaining activity at 10 µM (human GnRH receptor; 1 h): 17%
Cc1cc2c(cc1Cc1ccc(C(=O)Nc3ncccc3C)o1)C(C)(C)CCC2(C)C [Compound 379] | – | – | remaining activity at 10 µM (human GnRH receptor; 1 h): 4%
Cc1cc2c(cc1Cc1ccc(C(=O)NCCO)o1)C(C)(C)CCC2(C)C [drawing 1178] | 1 | 1 | –
Cc1cc2c(cc1Cc1ccc(C(=O)NCCC3CCCN3C)o1)C(C)(C)CCC2(C)C (stereo not drawn) [drawing 977] | 40 | 49 | –
Cc1cc2c(cc1Cc1ccc(C(=O)NCc3nc4ccccc4[nH]3)o1)C(C)(C)CCC2(C)C [drawing 1060] | – | – | % Inhib. @ 1 uM hGnRH (human GnRH receptor; 1 uM): 101%; Repeats @ 1 uM hGnRH (human GnRH receptor; repeat of % Inhib. at 1 uM): 99
Cc1cccc(CNC(=O)c2ccc(Cc3cc4c(cc3C)C(C)(C)CCC4(C)C)o2)c1 [Compound 434] | – | – | remaining activity at 1 µM (human GnRH receptor; 1 h): 6%
Cc1cc2c(cc1Cc1ccc(C(=O)NCCc3c[nH]cn3)o1)C(C)(C)CCC2(C)C [drawing 1051] | – | – | % Inhib. @ 1 uM hGnRH (human GnRH receptor; 1 uM): 32%; Repeats @ 1 uM hGnRH (human GnRH receptor; repeat of % Inhib. at 1 uM): 36
Cc1cc2c(cc1Cc1ccc(C(=O)NCCNc3cccc(NCC4CCCO4)n3)o1)C(C)(C)CCC2(C)C (stereo not drawn) | 18 | 22 | –
COc1cc(OC)c(NC(=O)c2ccc(Cc3cc4c(cc3C)C(C)(C)CCC4(C)C)n2Cc2ccccc2)c(OC)c1 [Compound 224] | – | – | IC50 (human GnRH receptor): > 10000 nM
Cc1ncc(CNC(=O)c2ccc(Cc3cc4c(cc3C)C(C)(C)CCC4(C)C)o2)c(N)n1 [Compound 163] | – | – | IC50 (human GnRH receptor): 1960 nM
Cc1cc2c(cc1Cc1ccc(C(=O)Nc3ccc(Br)c4ccccc34)o1)C(C)(C)CCC2(C)C [Compound 388] | – | – | remaining activity at 10 µM (human GnRH receptor; 1 h): 30%
Cc1cc2c(cc1Cc1ccc(C(=O)NC[C@H]3CCCO3)o1)C(C)(C)CCC2(C)C [Compound 57] | – | – | IC50 (human GnRH receptor): 830 nM
Cc1cc2c(cc1Cc1ccc(C(=O)NCC3CCN(c4ccnc(Cl)n4)CC3)o1)C(C)(C)CCC2(C)C [drawing 1064] | 79 | 91 | –
Cc1cc2c(cc1Cc1ccc(C(=O)NCCc3ccccc3)o1)C(C)(C)CCC2(C)C [Compound 405] | – | – | remaining activity at 1 µM (human GnRH receptor; 1 h): 40%

SMILES | inhibition at 1 µM (human GnRH receptor; [1]) [%] | inhibition at 1 µM (human GnRH receptor; [2]) [%] | other results
Cc1ccc2nc(C)n(NC(=O)c3ccc(Cc4cc5c(cc4C)C(C)(C)CCC5(C)C)o3)c(=O)c2c1 | – | – | inhibition at 10 µM (human GnRH receptor; repeat, read-out: Repeats @ 10 uM hGnRH (% inhib.)): -4%; inhibition at 10 µM (human GnRH receptor; read-out: % inhib. @ 10 uM hGnRH): -4%
Cc1cc2c(cc1Cc1ccc(C(=O)N3CCN(c4ccc(Cl)cc4)C(C)C3)o1)C(C)(C)CCC2(C)C (stereo not drawn) | -18 | -7 | –
COc1ccccc1CCNC(=O)c1ccc(Cc2cc3c(cc2C)C(C)(C)CCC3(C)C)o1 [drawing 1114] | 61 | 70 | –
COc1ccccc1CCNC(=O)c1ccc(Cc2cc3c(cc2C)C(C)(C)CCC3(C)C)o1 [Compound 419] | – | – | remaining activity at 1 µM (human GnRH receptor; 1 h): 36%
Cc1cc2c(cc1Cc1ccc(C(=O)N3CCN(c4ccccc4[N+](=O)[O-])CC3)o1)C(C)(C)CCC2(C)C | -15 | -20 | –
Cc1cc2c(cc1Cc1ccc(C(=O)N3CCc4cc(O)c(O)cc4C3C)o1)C(C)(C)CCC2(C)C (stereo not drawn) | -13 | -5 | –
Cc1cc2c(cc1Cc1ccc(C(=O)NC(c3ccccc3)c3ccc(Cl)cc3)o1)C(C)(C)CCC2(C)C (stereo not drawn) | -8 | 3 | –
Cc1cc2c(cc1Cc1ccc(C(=O)NC3CCC(Nc4nccc(NCC5CCCO5)n4)CC3)o1)C(C)(C)CCC2(C)C (stereo not drawn) [Compound 152] | – | – | IC50 (human GnRH receptor): 700 nM
Cc1cc2c(cc1Cc1ccc(C(=O)N(CCc3ccccc3)Cc3ccccc3O)o1)C(C)(C)CCC2(C)C | -20 | -30 | –
Cc1cc2c(cc1Cc1ccc(C(=O)NC(CO)Cc3ccccc3)o1)C(C)(C)CCC2(C)C (stereo not drawn) [drawing 1117] | – | – | % Inhib. @ 1 uM hGnRH (human GnRH receptor; 1 uM): 72%; Repeats @ 1 uM hGnRH (human GnRH receptor; repeat of % Inhib. at 1 uM): 72
Cc1cc2c(cc1Cc1ccc(C(=O)NCc3cccc4ccccc34)o1)C(C)(C)CCC2(C)C [drawing 1120] | 61 | 71 | –
Cc1cc2c(cc1Cc1ccc(C(=O)NCCCNCCCCNCCCN)o1)C(C)(C)CCC2(C)C [drawing 1034] | -20 | -26 | –
Cc1cc2c(cc1Cc1ccc(C(=O)NCc3ccc(F)cc3Cl)o1)C(C)(C)CCC2(C)C | 27 | 48 | –
COC(=O)CCCCCNC(=O)c1ccc(Cc2cc3c(cc2C)C(C)(C)CCC3(C)C)o1 [drawing 1059] | 85 | 85 | –
CCN(Cc1cc([N+](=O)[O-])ccc1O)C(=O)c1ccc(Cc2cc3c(cc2C)C(C)(C)CCC3(C)C)o1 | -11 | -5 | –
Cc1cc2c(cc1Cc1ccc(C(=O)Nc3nccs3)o1)C(C)(C)CCC2(C)C [Compound 334] | – | – | remaining activity at 10 µM (human GnRH receptor; 1 h): 34%
Cc1cnc(CNC(=O)c2ccc(Cc3ccc4c(c3)C(C)(C)CCC4(C)C)o2)cn1 [Compound 60] | – | – | IC50 (human GnRH receptor): 4200 nM
Cc1cc2c(cc1Cc1ccc(C(=O)NCCc3cccc(F)c3)o1)C(C)(C)CCC2(C)C [Compound 437] | – | – | remaining activity at 1 µM (human GnRH receptor; 1 h): 40%
CCCCN(Cc1ccccc1)C(=O)c1ccc(Cc2cc3c(cc2C)C(C)(C)CCC3(C)C)o1 | -7 | 9 | –
Cc1cc2c(cc1Cc1ccc(C(=O)N[C@@H](CO)Cc3c[nH]cn3)o1)C(C)(C)CCC2(C)C | -17 | -27 | –
Cc1cc2c(cc1Cc1ccc(C(=O)N(C)[C@@H](C)[C@H](C)c3ccccc3)o1)C(C)(C)CCC2(C)C | -7 | 4 | –
Cc1cc2c(cc1Cc1ccc(C(=O)NCc3ccc(C(F)(F)F)cc3)o1)C(C)(C)CCC2(C)C | 40 | 41 | –
CNc1ccccc1NC(=O)c1ccc(Cc2cc3c(cc2C)C(C)(C)CCC3(C)C)o1 [Compound 167] | – | – | IC50 (human GnRH receptor): 7640 nM
COc1cc(OC)c(NC(=O)c2cc(Cc3cc4c(cc3C)C(C)(C)CCC4(C)C)on2)c(OC)c1 [Compound 218] | – | – | IC50 (human GnRH receptor): 6460 nM
